Data as given in the CheMixHub viscosity set.
± gives the uncertainty stated by the source.

Test: xn = mol fraction of the nth substance listed

COC(C)=O + ClCCCl
303.15 K, 101.3 kPa
Settings | viscosity [mPa·s]
x1 = 0.1016 | 0.6754 ± 0.0059
x1 = 0.199 | 0.6342 ± 0.0058
x1 = 0.2978 | 0.594 ± 0.0056
x1 = 0.4014 | 0.5517 ± 0.0054
x1 = 0.4966 | 0.5168 ± 0.0053
x1 = 0.5959 | 0.4819 ± 0.0052
x1 = 0.6976 | 0.4445 ± 0.005
x1 = 0.8973 | 0.378 ± 0.0048

COC(C)=O + O
298.15 K, 101 kPa
Settings | viscosity [mPa·s]
x1 = 0.007776 | 0.9505 ± 0.0044
x1 = 0.01059 | 0.9711 ± 0.0044
x1 = 0.01834 | 1.021 ± 0.0045
x1 = 0.02351 | 1.05 ± 0.0045
x1 = 0.0294 | 1.087 ± 0.0046
x1 = 0.03745 | 1.118 ± 0.0046
x1 = 0.03898 | 1.127 ± 0.0046
x1 = 0.04509 | 1.146 ± 0.0046
x1 = 0.7729 | 0.4311 ± 0.0015
x1 = 0.8213 | 0.4084 ± 0.0014
x1 = 0.8787 | 0.3879 ± 0.0013
x1 = 0.9325 | 0.372 ± 0.0013

COc1ccccc1N + CCC(C)O
viscosity [mPa·s], 101 kPa
Settings | x1 = 0.1106 | x1 = 0.1844 | x1 = 0.2647 | x1 = 0.3523 | x1 = 0.4825 | x1 = 0.5919 | x1 = 0.6713 | x1 = 0.7566 | x1 = 0.8969
303.15 K | 2.843 ± 0.067 | 3.007 ± 0.07 | 3.188 ± 0.073 | 3.385 ± 0.078 | 3.681 ± 0.084 | 3.931 ± 0.089 | 4.114 ± 0.092 | 4.314 ± 0.097 | 4.656 ± 0.1
308.15 K | 2.398 ± 0.057 | 2.561 ± 0.06 | 2.739 ± 0.064 | 2.935 ± 0.068 | 3.229 ± 0.074 | 3.483 ± 0.079 | 3.671 ± 0.083 | 3.878 ± 0.087 | 4.233 ± 0.095
313.15 K | 2.083 ± 0.049 | 2.242 ± 0.053 | 2.413 ± 0.056 | 2.602 ± 0.06 | 2.891 ± 0.066 | 3.143 ± 0.072 | 3.331 ± 0.076 | 3.541 ± 0.08 | 3.906 ± 0.087
318.15 K | 1.788 ± 0.043 | 1.942 ± 0.046 | 2.107 ± 0.05 | 2.29 ± 0.054 | 2.572 ± 0.06 | 2.825 ± 0.065 | 3.017 ± 0.069 | 3.231 ± 0.073 | 3.6 ± 0.081
